# Results taken from patent US6534524B1, “Indazole compounds and pharmaceutical compositions for inhibiting protein kinases, and methods for their use” (Agouron Pharmaceuticals, Inc., priority 1999, dated 2003).
# System: human umbilical vein endothelial cells (HUVEC)
# Test: HUVEC proliferation assay (VEGF-stimulated, MTT);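 for % inhibition of the proliferation of HUVEC: relative to VEGF-stimulated control minus starvation-medium baseline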
# Type: cell-based
# Conditions: Library I, Y = CO; nominal concentration of 10 nM; crude reaction mixtures
row,Compound,% inhibition of the proliferation of HUVEC
1,CC(=O)NCCNC(=O)c1ccc2c(-c3nc4ccccc4[nH]3)n[nH]c2c1,14%
2,O=C(NC1CCS(=O)(=O)C1)c1ccc2c(-c3nc4ccccc4[nH]3)n[nH]c2c1 (stereo not drawn) [drawing 576],47%
3,CC(=O)N1CCN(C(=O)c2ccc3c(-c4nc5ccccc5[nH]4)n[nH]c3c2)CC1,5%
4,CCOC(=O)CC(C)NC(=O)c1ccc2c(-c3nc4ccccc4[nH]3)n[nH]c2c1 (stereo not drawn),31%
5,O=C(c1ccc2c(-c3nc4ccccc4[nH]3)n[nH]c2c1)N1CCC(O)C1 (stereo not drawn),10%
6,O=C(c1ccc2c(-c3nc4ccccc4[nH]3)n[nH]c2c1)N1CCCC(CO)C1 (stereo not drawn),96%
7,CN(CC#N)C(=O)c1ccc2c(-c3nc4ccccc4[nH]3)n[nH]c2c1,56%
8,O=C(Nc1cccnc1)c1ccc2c(-c3nc4ccccc4[nH]3)n[nH]c2c1,−2%

# Same assay, conditions: Library I, Y = NH; nominal concentration of 10 nM; crude reaction mixtures
row,Compound,% inhibition of the proliferation of HUVEC
1,CC(=O)NCCNC(=O)c1ccc2c(-c3nc4ccccc4[nH]3)n[nH]c2c1,12%
2,O=C(NC1CCS(=O)(=O)C1)c1ccc2c(-c3nc4ccccc4[nH]3)n[nH]c2c1 (stereo not drawn) [drawing 576],10%
3,CC(=O)N1CCN(C(=O)c2ccc3c(-c4nc5ccccc5[nH]4)n[nH]c3c2)CC1,7%
4,CCOC(=O)CC(C)NC(=O)c1ccc2c(-c3nc4ccccc4[nH]3)n[nH]c2c1 (stereo not drawn),−17%
5,O=C(c1ccc2c(-c3nc4ccccc4[nH]3)n[nH]c2c1)N1CCC(O)C1 (stereo not drawn),−2%
6,O=C(c1ccc2c(-c3nc4ccccc4[nH]3)n[nH]c2c1)N1CCCC(CO)C1 (stereo not drawn),6%
7,CN(CC#N)C(=O)c1ccc2c(-c3nc4ccccc4[nH]3)n[nH]c2c1,−17%
8,O=C(Nc1cccnc1)c1ccc2c(-c3nc4ccccc4[nH]3)n[nH]c2c1,17%

# Same assay, conditions: Library I, Y = O; nominal concentration of 10 nM; crude reaction mixtures
row,Compound,% inhibition of the proliferation of HUVEC
1,CC(=O)NCCNC(=O)c1ccc2c(-c3nc4ccccc4[nH]3)n[nH]c2c1,90%
2,O=C(NC1CCS(=O)(=O)C1)c1ccc2c(-c3nc4ccccc4[nH]3)n[nH]c2c1 (stereo not drawn) [drawing 576],17%
3,CC(=O)N1CCN(C(=O)c2ccc3c(-c4nc5ccccc5[nH]4)n[nH]c3c2)CC1,23%
4,CCOC(=O)CC(C)NC(=O)c1ccc2c(-c3nc4ccccc4[nH]3)n[nH]c2c1 (stereo not drawn),20%
5,O=C(c1ccc2c(-c3nc4ccccc4[nH]3)n[nH]c2c1)N1CCC(O)C1 (stereo not drawn),19%
6,O=C(c1ccc2c(-c3nc4ccccc4[nH]3)n[nH]c2c1)N1CCCC(CO)C1 (stereo not drawn),134%
7,CN(CC#N)C(=O)c1ccc2c(-c3nc4ccccc4[nH]3)n[nH]c2c1,17%
8,O=C(Nc1cccnc1)c1ccc2c(-c3nc4ccccc4[nH]3)n[nH]c2c1,25%

# Same assay, conditions: Library II, Y=S; 0.5 mM (column head; text: nominal 0.5 nM); crude reaction mixtures
row,Compound,% inhibition of the proliferation of HUVEC
1,O=C(NO)c1ccccc1Sc1ccc2c(/C=C/c3ccccn3)n[nH]c2c1,7%
2,CCNC(=O)c1ccccc1Sc1ccc2c(/C=C/c3ccccn3)n[nH]c2c1 [drawing 696],16%
3,CNNC(=O)c1ccccc1Sc1ccc2c(/C=C/c3ccccn3)n[nH]c2c1,13%
4,CCC(CC)CCCC(C)NC(=O)c1ccccc1Sc1ccc2c(/C=C/c3ccccn3)n[nH]c2c1 (stereo not drawn),3%
5,Cc1cnc(NC(=O)c2ccccc2Sc2ccc3c(/C=C/c4ccccn4)n[nH]c3c2)s1,20%
6,O=C(Nc1nccs1)c1ccccc1Sc1ccc2c(/C=C/c3ccccn3)n[nH]c2c1 [drawing 740],33%
7,O=C(NCC1CCCO1)c1ccccc1Sc1ccc2c(/C=C/c3ccccn3)n[nH]c2c1 (stereo not drawn),23%
8,NS(=O)(=O)c1ccc(CCNC(=O)c2ccccc2Sc2ccc3c(/C=C/c4ccccn4)n[nH]c3c2)cc1,26%
9,O=C(NCCc1ccccc1)c1ccccc1Sc1ccc2c(/C=C/c3ccccn3)n[nH]c2c1,15%
10,O=C(NCCN1CCNC1=O)c1ccccc1Sc1ccc2c(/C=C/c3ccccn3)n[nH]c2c1,5%
11,COC(=O)c1ccc(NC(=O)c2ccc3c(-c4nc5ccccc5[nH]4)n[nH]c3c2)o1 [drawing 608],38%
12,O=C(NCCCN1CCCC1=O)c1ccccc1Sc1ccc2c(/C=C/c3ccccn3)n[nH]c2c1,25%
13,Cc1cc(NC(=O)c2ccccc2Sc2ccc3c(/C=C/c4ccccn4)n[nH]c3c2)n(C)n1,39%
14,N#CCNC(=O)c1ccccc1Sc1ccc2c(/C=C/c3ccccn3)n[nH]c2c1,18%
15,CC(CNC(=O)c1ccccc1Sc1ccc2c(/C=C/c3ccccn3)n[nH]c2c1)N(C)C (stereo not drawn),−9%
16,CN(NC(=O)c1ccccc1Sc1ccc2c(/C=C/c3ccccn3)n[nH]c2c1)c1ccccc1,16%
17,O=C(NCCCN1CCCCC1)c1ccccc1Sc1ccc2c(/C=C/c3ccccn3)n[nH]c2c1,16%
18,CCC(COC)NC(=O)c1ccccc1Sc1ccc2c(/C=C/c3ccccn3)n[nH]c2c1 (stereo not drawn),1%

# Same assay, conditions: Library II, Y=S; 2 mM (column head; text: nominal 2 nM); crude reaction mixtures
row,Compound,% inhibition of the proliferation of HUVEC
1,O=C(NO)c1ccccc1Sc1ccc2c(/C=C/c3ccccn3)n[nH]c2c1,25%
2,CCNC(=O)c1ccccc1Sc1ccc2c(/C=C/c3ccccn3)n[nH]c2c1 [drawing 696],17%
3,CNNC(=O)c1ccccc1Sc1ccc2c(/C=C/c3ccccn3)n[nH]c2c1,31%
4,CCC(CC)CCCC(C)NC(=O)c1ccccc1Sc1ccc2c(/C=C/c3ccccn3)n[nH]c2c1 (stereo not drawn),15%
5,Cc1cnc(NC(=O)c2ccccc2Sc2ccc3c(/C=C/c4ccccn4)n[nH]c3c2)s1,92%
6,O=C(Nc1nccs1)c1ccccc1Sc1ccc2c(/C=C/c3ccccn3)n[nH]c2c1 [drawing 740],94%
7,O=C(NCC1CCCO1)c1ccccc1Sc1ccc2c(/C=C/c3ccccn3)n[nH]c2c1 (stereo not drawn),44%
8,NS(=O)(=O)c1ccc(CCNC(=O)c2ccccc2Sc2ccc3c(/C=C/c4ccccn4)n[nH]c3c2)cc1,37%
9,O=C(NCCc1ccccc1)c1ccccc1Sc1ccc2c(/C=C/c3ccccn3)n[nH]c2c1,99%
10,O=C(NCCN1CCNC1=O)c1ccccc1Sc1ccc2c(/C=C/c3ccccn3)n[nH]c2c1,1%
11,COC(=O)c1ccc(NC(=O)c2ccc3c(-c4nc5ccccc5[nH]4)n[nH]c3c2)o1 [drawing 608],2%
12,O=C(NCCCN1CCCC1=O)c1ccccc1Sc1ccc2c(/C=C/c3ccccn3)n[nH]c2c1,35%
13,Cc1cc(NC(=O)c2ccccc2Sc2ccc3c(/C=C/c4ccccn4)n[nH]c3c2)n(C)n1,13%
14,N#CCNC(=O)c1ccccc1Sc1ccc2c(/C=C/c3ccccn3)n[nH]c2c1,40%
15,CC(CNC(=O)c1ccccc1Sc1ccc2c(/C=C/c3ccccn3)n[nH]c2c1)N(C)C (stereo not drawn),1%
16,CN(NC(=O)c1ccccc1Sc1ccc2c(/C=C/c3ccccn3)n[nH]c2c1)c1ccccc1,37%
17,O=C(NCCCN1CCCCC1)c1ccccc1Sc1ccc2c(/C=C/c3ccccn3)n[nH]c2c1,7%
18,CCC(COC)NC(=O)c1ccccc1Sc1ccc2c(/C=C/c3ccccn3)n[nH]c2c1 (stereo not drawn),65%

# Same assay, conditions: Library III; HUVEC proliferation; nominal concentration of 0.5 nM; crude reaction mixtures
row,Compound,% inhibition
1,Cc1cc(NC(=O)c2ccccc2Sc2ccc3c(/C=C/c4ccccn4)n[nH]c3c2)ccc1F,9%
2,Cc1ccc(NC(=O)c2ccccc2Sc2ccc3c(/C=C/c4ccccn4)n[nH]c3c2)nc1,−20%
3,COC1C=CC(CNC(=O)c2ccccc2Sc2ccc3c(/C=C/c4ccccn4)n[nH]c3c2)(OC)O1 (stereo not drawn),0%
4,O=C(NCc1ccc(F)cc1Cl)c1ccccc1Sc1ccc2c(/C=C/c3ccccn3)n[nH]c2c1,−7%
5,COc1ccc(NC(=O)c2ccccc2Sc2ccc3c(/C=C/c4ccccn4)n[nH]c3c2)cn1,−20%
6,O=C(Nc1cc(O)nc(O)n1)c1ccccc1Sc1ccc2c(/C=C/c3ccccn3)n[nH]c2c1,3%
7,CCOC(=O)c1ccc(NC(=O)c2ccccc2Sc2ccc3c(/C=C/c4ccccn4)n[nH]c3c2)cc1,−25%
8,Cc1ccc(CO)cc1NC(=O)c1ccccc1Sc1ccc2c(/C=C/c3ccccn3)n[nH]c2c1,1%
9,Nc1ccccc1CNC(=O)c1ccccc1Sc1ccc2c(/C=C/c3ccccn3)n[nH]c2c1,46%
10,CCC(C)C(NC(=O)c1ccccc1Sc1ccc2c(C=Cc3ccccn3)n[nH]c2c1)C(=O)NO (stereo not drawn),9%
11,O=C(Nc1ccc2[nH]c(=O)[nH]c2c1)c1ccccc1Sc1ccc2c(/C=C/c3ccccn3)n[nH]c2c1,15%
12,O=C(Nc1ccc(O)c(F)c1)c1ccccc1Sc1ccc2c(/C=C/c3ccccn3)n[nH]c2c1,−10%
13,O=C(Nc1cccc2cc(O)ccc12)c1ccccc1Sc1ccc2c(/C=C/c3ccccn3)n[nH]c2c1,−22%
14,O=C(NC1(CO)CCCC1)c1ccccc1Sc1ccc2c(/C=C/c3ccccn3)n[nH]c2c1,−5%
15,CN(C)c1ccc(NC(=O)c2ccccc2Sc2ccc3c(/C=C/c4ccccn4)n[nH]c3c2)cc1,18%
16,COc1ccc(OC)c(NC(=O)c2ccccc2Sc2ccc3c(/C=C/c4ccccn4)n[nH]c3c2)c1,−5%
17,O=C(NC[C@@H]1CCCO1)c1ccccc1Sc1ccc2c(/C=C/c3ccccn3)n[nH]c2c1,−11%
18,O=C(Nc1cccc(C(F)(F)F)c1)c1ccccc1Sc1ccc2c(/C=C/c3ccccn3)n[nH]c2c1,4%
19,N#Cc1[nH]cnc1NC(=O)c1ccccc1Sc1ccc2c(/C=C/c3ccccn3)n[nH]c2c1,−13%
20,COc1ccc(CNC(=O)c2ccccc2Sc2ccc3c(/C=C/c4ccccn4)n[nH]c3c2)cc1OC,7%
21,O=C(Nc1ccccc1)c1ccccc1Sc1ccc2c(/C=C/c3ccccn3)n[nH]c2c1 [drawing 1131],11%

row,Compound,% inhibition
1,CC(NC(=O)c1ccccc1Sc1ccc2c(/C=C/c3ccccn3)n[nH]c2c1)c1ccc(Cl)cc1 (stereo not drawn),14%
2,O=C(Nc1ccc(Cl)nc1)c1ccccc1Sc1ccc2c(/C=C/c3ccccn3)n[nH]c2c1,2%
3,CC(=O)c1cccc(NC(=O)c2ccccc2Sc2ccc3c(/C=C/c4ccccn4)n[nH]c3c2)c1,5%
4,Cc1ccc(CNC(=O)c2ccccc2Sc2ccc3c(/C=C/c4ccccn4)n[nH]c3c2)cc1Cl,−16%
5,Cn1nc(C2CC2)cc1NC(=O)c1ccccc1Sc1ccc2c(/C=C/c3ccccn3)n[nH]c2c1,−47%
6,O=C(Nc1ccc2[nH]nnc2c1)c1ccccc1Sc1ccc2c(/C=C/c3ccccn3)n[nH]c2c1,−7%
7,O=C(Nc1cccc2ncccc12)c1ccccc1Sc1ccc2c(/C=C/c3ccccn3)n[nH]c2c1,−37%
8,O=C(Nc1cccc2ccccc12)c1ccccc1Sc1ccc2c(/C=C/c3ccccn3)n[nH]c2c1,−33%
9,O=C(Nc1ccc2c(O)cccc2c1)c1ccccc1Sc1ccc2c(/C=C/c3ccccn3)n[nH]c2c1,−26%
10,O=C(Nc1ccncn1)c1ccccc1Sc1ccc2c(/C=C/c3ccccn3)n[nH]c2c1,−10%
11,NC(=O)c1cccc(NC(=O)c2ccccc2Sc2ccc3c(/C=C/c4ccccn4)n[nH]c3c2)c1,4%
12,COc1ccc(CNC(=O)c2ccccc2Sc2ccc3c(/C=C/c4ccccn4)n[nH]c3c2)c(OC)c1,13%
13,CSCCNC(=O)c1ccccc1Sc1ccc2c(/C=C/c3ccccn3)n[nH]c2c1,18%
14,CC(C)Oc1cccc(NC(=O)c2ccccc2Sc2ccc3c(/C=C/c4ccccn4)n[nH]c3c2)c1,1%
15,O=Nc1c(O)nc(O)nc1NC(=O)c1ccccc1Sc1ccc2c(/C=C/c3ccccn3)n[nH]c2c1,−18%
16,COc1ccc(CCNC(=O)c2ccccc2Sc2ccc3c(/C=C/c4ccccn4)n[nH]c3c2)cc1,10%
17,O=C(Nc1cnccn1)c1ccccc1Sc1ccc2c(/C=C/c3ccccn3)n[nH]c2c1,−1%
18,O=C(NCc1cc(F)ccc1F)c1ccccc1Sc1ccc2c(/C=C/c3ccccn3)n[nH]c2c1,15%
19,O=C(NCC1(O)CCCCC1)c1ccccc1Sc1ccc2c(/C=C/c3ccccn3)n[nH]c2c1 [drawing 1197],2%
20,Cc1ccc(CCNC(=O)c2ccccc2Sc2ccc3c(/C=C/c4ccccn4)n[nH]c3c2)cc1,−1%
21,O=C(Nc1cc(O)c2ccccc2n1)c1ccccc1Sc1ccc2c(/C=C/c3ccccn3)n[nH]c2c1,4%
